Peptide text beside a SMILES is read from it.
Test system: erythrocytes infected with 3D7 trophozoites
Type: cell-based, Plasmodium falciparum
Settings: sheet Ratio; for Ratio of metabolite abundance, Exp1_1hr: Exp1, 1hr; for Ratio of metabolite abundance, Exp1_3hr: Exp1, 3hr; for Ratio of metabolite abundance, Exp1_6hr: Exp1, 6hr; for Ratio of metabolite abundance, Exp2_1hr: Exp2, 1hr; for Ratio of metabolite abundance, Exp2_3hr: Exp2, 3hr; for Ratio of metabolite abundance, Exp2_6hr: Exp2, 6hr; for Ratio of metabolite abundance, Exp3_1hr: Exp3, 1hr; for Ratio of metabolite abundance, Exp3_3hr: Exp3, 3hr; for Ratio of metabolite abundance, Exp3_6hr: Exp3, 6hr

| SMILES | Ratio of metabolite abundance, Exp1_1hr | Ratio of metabolite abundance, Exp1_3hr | Ratio of metabolite abundance, Exp1_6hr | Ratio of metabolite abundance, Exp2_1hr | Ratio of metabolite abundance, Exp2_3hr | Ratio of metabolite abundance, Exp2_6hr | Ratio of metabolite abundance, Exp3_1hr | Ratio of metabolite abundance, Exp3_3hr | Ratio of metabolite abundance, Exp3_6hr |
| --- | --- | --- | --- | --- | --- | --- | --- | --- | --- |
| CC(C)[C@H](NC(=O)[C@@H](N)Cc1c[nH]cn1)C(=O)N[C@@H](CC(=O)O)C(=O)N[C@@H](CC(=O)O)C(=O)O [HVDD] (H-HVDD-OH) | 0.5307 | 0.3298 | 0.7281 | 0.7593 | 0.3961 | 1.162 | 0.6174 | 0.4236 | 1.2463 |
| Nc1ccn([C@@H]2O[C@H](COP(=O)(O)OP(=O)(O)O)[C@@H](O)[C@H]2O)c(=O)n1 [CDP] | 1.235 | 0.632 | 0.653 | 1.081 | 0.7109 | 1.157 | 0.7322 | 0.673 | 0.7355 |
| CCCCC/C=C\C/C=C\C/C=C\CCCCCCC(=O)O [DGLA] | 0.6512 | 0.4296 | 1.744 | 0.832 | 0.6938 | 1.456 | 0.7202 | 0.7277 | 2.242 |
| Nc1nc2c(ncn2[C@@H]2O[C@H](COP(=O)(O)OP(=O)(O)O[C@H]3O[C@H](CO)[C@@H](O)[C@H](O)[C@@H]3O)[C@@H](O)[C@H]2O)c(=O)[nH]1 [GDP-mannose] | 1.172 | 0.7132 | 0.4189 | 0.9396 | 0.7145 | 0.4773 | 0.9382 | 0.7837 | 0.5338 |
| NCCCC(=O)O [4-Aminobutanoate] | 3.908 | 0.7769 | 1.748 | 3.257 | 2.342 | 1.761 | 0.9389 | 3.211 | 3.145 |
| N[C@@H](CCC(=O)O)C(=O)N[C@@H](CO)C(=O)N[C@@H](Cc1ccccc1)C(=O)NCC(=O)O [ESFG] (H-ESFG-OH) | 1.207 | 0.8233 | 1.441 | 1.518 | 1.053 | 1.4585 | 1.266 | 0.9822 | 1.358 |
| CC(C)C[C@H](NC(=O)CNC(=O)[C@H](CC(=O)O)NC(=O)[C@@H](N)CO)C(=O)N[C@@H](C)C(=O)O [SDGLA] (H-SDGLA-OH) | 0.8703 | 0.6348 | 0.4701 | 0.9687 | 0.9448 | 0.8041 | 0.872 | 0.7497 | 0.5099 |
| N[C@@H](CO)C(=O)N[C@@H](Cc1ccccc1)C(=O)NCC(=O)N[C@@H](CC(=O)O)C(=O)O [SFGD] (H-SFGD-OH) | 0.9984 | 0.657 | 0.8343 | 0.9574 | 0.8881 | 0.8874 | 0.972 | 0.9269 | 0.9926 |
| O=C[C@H](O)[C@H](O)[C@H](O)COP(=O)(O)O [Ribose-5-phosphate] | 2.775 | 3.2124 | 2.288 | 1.429 | 1.2203 | 1.178 | 1.678 | 1.594 | 1.155 |
| O=P(O)(OC[C@H](O)CO)OC1[C@H](O)[C@H](O)C(O)[C@H](O)[C@H]1O (stereo partly drawn) [sn-glycero-3-Phospho-1-inositol] | 0.9506 | 1.24 | 0.9287 | 1.0526 | 1.0759 | 1.139 | 0.7659 | 1.067 | 1.2236 |
| O=C1O[C@H]([C@H](O)CO)[C@H](O)[C@H]1O [D-Glucono-1-4-lactone] | 3.064 | 5.2964 | 6.162 | 1.636 | 4.1814 | 4.766 | 5.473 | 2.843 | 3.44 |
| O=C1CC(C(=O)O)NC(=O)N1 (stereo not drawn) [Dihydroorotate] | 0.7855 | 0.5689 | 0.4919 | 0.9051 | 0.4712 | 0.6702 | 0.4693 | 0.4085 | 0.3763 |
| N[C@@H](CCC(=O)O)C(=O)O [Glutamate] | 1.14 | 0.9816 | 0.9735 | 1.0715 | 0.9058 | 0.8408 | 1.009 | 0.9619 | 1.158 |
| O=P(O)(O)OC[C@H]1OC(O)(CO)[C@@H](O)[C@@H]1O (stereo partly drawn) [Fructose-6-Phosphate] | 1.008 | 1.026 | 1.013 | 1.111 | 1.041 | 0.9386 | 1.073 | 1.052 | 0.8397 |
